Test results published in US10307352B2, “Low oil compositions comprising a 4-substituted resorcinol and a high carbon chain ester” (Johnson & Johnson Consumer Inc., priority 2012, dated 2019).

Test system: IL-8 cytokine release
Assay: IL-8 assay: TNFα-induced IL-8 cytokine release from topically treated epidermal equivalents (EPI 200 HCF)
Assay type: cell-based, human
Conditions: ester added to 4-hexyl resorcinol-containing composition; result in words
Protocol: An IL-8 assay was performed on the compositions of Example I to investigate the release of pro-inflammatory mediators in human epithelial cells as follows.
Epidermal equivalents (EPI 200 HCF), multilayer and differentiated epidermis consisting of normal human epidermal keratinocytes, were purchased from MatTek (Ashland, Mass.). Upon receipt, epidermal equivalents were incubated for 24 hours at 37° C. in maintenance medium without hydrocortisone. Equivalents were topically treated (2 mg/cm^2) with formulation in example 1 for 2 hours before exposure to 100 ng/mL of Tumor Necrosis Factor-α (TNFα, available from Sigma-Aldrich of St Louis, Mo.). Equivalents were incubated for 4 hours at 37° C. with maintenance medium then supernatants were analyzed for IL-8 cytokine release using commercially available kits (Upstate Biotechnology, Charlottesville, Va.). Percent Reduction in IL-8 was calculated for the compositions relative to Comparative Composition C1 (without ester): Percent Reduction=[1−(Valuesample/Valuebase)]×100 where Valuesample was the IL-8 level of the composition tested and Valuebase was the IL-8 value of Comparative Composition C1.
Additional IL-8 Assays were performed as described in Example II. Compositions (described in Table 2) containing 4-hexyl resorcinol with different esters, each present at 3% by weight, were compared with Composition 6 according to the invention containing 3% by weight pentaerythritol tetraethylhexanoate.

Row | Compound | boost in the activity (IL-8 inhibition) of 4-hexyl resorcinol over compositions without the ester
1 | isononyl isonanoate | only a modest boost or no boost at all
2 | octyldodecyl neopentanoate | substantial boost
3 | CCCCC(CC)C(=O)OCC(COC(=O)C(CC)CCCC)(COC(=O)C(CC)CCCC)COC(=O)C(CC)CCCC (stereo not shown) [pentaerythritol tetraethylhexanoate] | substantial boost
4 | CCCCCCC(=O)OCC(C)(C)COC(=O)CCCCCC [neopentyl glycol diheptanoate] | only a modest boost or no boost at all
